The values below come from patent publication US9920038B2, “Methyl oxazole orexin receptor antagonists” (MERCK SHARP & DOHME CORP., priority 2014, dated 2018).

One test concerns the target hOX1R (Homo sapiens, UniProt O43613). Kind of test: hOX1R FLIPR Ca2+ flux assay. Format: cell-based. The settings on record: CHO cells expressing orexin-1 receptor; agonist 70 pM Ala-6,12 orexin-A; read-out: hOX1R FLIPR IC50. (In general: Calcium flux is commonly read through the fluorescence of an indicator in the cells.)
Another test addresses human orexin-2 receptor (Homo sapiens (Human), UniProt O43614). The experiment in a line: hOX2R FLIPR Ca2+ flux assay. Format: cell-based. The following applies: CHO cells expressing human orexin-2 receptor; agonist 70 pM Ala-6,12 orexin-A. The procedure:
In a typical experiment the OX1 and OX2 receptor antagonistic activity of the compounds of the present invention was determined in accordance with the following experimental method. For intracellular calcium measurements, Chinese hamster ovary (CHO) cells expressing the rat orexin-1 receptor or the human orexin-2 receptor, are grown in Iscove's modified DMEM containing 2 mM L-glutamine, […], 1% hypoxanthine-thymidine supplement, 100 U/ml penicillin, 100 μg/ml streptomycin and 10% heat-inactivated fetal calf serum (FCS). The cells are seeded at 20,000 cells/well into Becton-Dickinson black 384-well clear bottom sterile plates coated with poly-D-lysine. All reagents were from GIBCO-Invitrogen Corp. The seeded plates are incubated overnight at 37° C. and 5% CO2. Ala-6,12 human orexin-A as the agonist is prepared as a 1 mM stock solution in 1% bovine serum albumin (BSA) and diluted in assay buffer (HBSS containing 20 mM HEPES, 0.1% BSA and 2.5 mM probenecid, pH7.4) for use in the assay at a final concentration of 70 pM. Test compounds are prepared as 10 mM stock solution in DMSO, then diluted in 384-well plates, first in DMSO, then assay buffer. On the day of the assay, cells are washed 3 times with 100 μl assay buffer and then incubated for 60 min (37° C., 5% CO2) in 60 μl assay buffer containing […] Fluo-4AM ester, 0.02% pluronic acid, and 1% BSA. The dye loading solution is then aspirated and cells are washed 3 times with 100 μl assay buffer. 30 μl of that same buffer is left in each well. Within the Fluorescent Imaging Plate Reader (FLIPR, Molecular Devices), test compounds are added to the plate in a volume of 25 μl, incubated for 5 min and finally 25 μl of agonist is added. Fluorescence is measured for each well at 1 second intervals for 5 minutes and the height of each fluorescence peak is compared to the height of the fluorescence peak induced by 70 pM Ala-6,12 orexin-A with buffer in place of antagonist. For each antagonist, IC50 value (the concentration of compound needed to inhibit 50% of the agonist response) is determined. Alternatively, compound potency can be assessed by a radioligand binding assay (described in Bergman et. al. Bioorg. Med. Chem. Lett. 2008, 18, 1425-1430) in which the inhibition constant (Ki) is determined in membranes prepared from CHO cells expressing either the OX1 or OX2 receptor. The intrinsic orexin receptor antagonist activity of a compound which may be used in the present invention may be determined by these assays.

One may read the IC50 as the point on the concentration scale where inhibition reaches its midpoint.

Chain of human orexin-2 receptor (O43614 whole entry): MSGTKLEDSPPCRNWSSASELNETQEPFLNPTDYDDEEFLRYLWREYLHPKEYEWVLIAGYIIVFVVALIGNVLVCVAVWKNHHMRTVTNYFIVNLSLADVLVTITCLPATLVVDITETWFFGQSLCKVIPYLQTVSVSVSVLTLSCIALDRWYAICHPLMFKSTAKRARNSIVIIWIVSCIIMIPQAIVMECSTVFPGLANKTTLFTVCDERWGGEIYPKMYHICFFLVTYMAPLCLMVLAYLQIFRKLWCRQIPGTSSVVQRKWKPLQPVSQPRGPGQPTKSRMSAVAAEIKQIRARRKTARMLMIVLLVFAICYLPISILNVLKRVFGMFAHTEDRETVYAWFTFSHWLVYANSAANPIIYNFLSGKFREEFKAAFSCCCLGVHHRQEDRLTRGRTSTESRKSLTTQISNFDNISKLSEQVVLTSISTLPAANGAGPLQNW

For `Cc1oc(C[C@H]2CCCCN2C(=O)c2ccccc2-c2ncccn2)nc1C(C)(C)O` [Example 31, (R)-(2-((4-(2-hydroxypropan-2-yl)-5-methyloxazol-2-yl)methyl)piperidin-1-yl)(2-(pyrimidin-2-yl)phenyl)methanone], the IC50 is 76 nM on hOX1R and 47 nM on human orexin-2 receptor.
For the compound `Cc1oc(C[C@H]2CCCCN2C(=O)c2ccccc2OCC(F)(F)F)nc1C(C)(C)O` [Example 17, (R)-(2-((4-(2-hydroxypropan-2-yl)-5-methyloxazol-2-yl)methyl)piperidin-1-yl)(2-(2,2,2-trifluoroethoxy)phenyl)methanone], the IC50 amounted to 952 nM on hOX1R and 99 nM on human orexin-2 receptor.
On to `COc1ccc(C(=O)N2CCCC[C@@H]2Cc2nc(C(C)(C)O)c(C)o2)c(C2CC2)n1` [Example 19, (R)-(2-cyclopropyl-6-methoxypyridin-3-yl)(2-((4-(2-hydroxypropan-2-yl)-5-methyloxazol-2-yl)methyl)piperidin-1-yl)methanone], for which the IC50 on hOX1R turned out to be 2310 nM; on human orexin-2 receptor, 503 nM.
The corresponding values for `Cc1oc(C[C@H]2CCCCN2C(=O)c2ccccc2OC(F)(F)F)nc1C(C)(C)O` [Example 9, (R)-(2-((4-(2-hydroxypropan-2-yl)-5-methyloxazol-2-yl)methyl)piperidin-1-yl)(2-(trifluoromethoxy)phenyl) methanone] are 348 nM and 109 nM.
As to `Cc1oc(C[C@H]2CCCCN2C(=O)c2cccnc2OCC(F)F)nc1C(C)(C)O` [Example 16, (R)-(2-(2,2-difluoroethoxy)pyridin-3-yl)(2-((4-(2-hydroxypropan-2-yl)-5-methyloxazol-2-yl)methyl)piperidin-1-yl)methanone], the figures for the IC50 on hOX1R and on human orexin-2 receptor were 373 nM and 49 nM, respectively.
Consider `CCOc1ccccc1C(=O)N1CCCC[C@@H]1Cc1nc(C(C)(C)O)c(C)o1` [Example 8, (R)-(2-ethoxyphenyl)(2-((4-(2-hydroxypropan-2-yl)-5-methyloxazol-2-yl)methyl)piperidin-1-yl)methanone], for which the IC50 on hOX1R worked out at 256 nM; at human orexin-2 receptor, 28 nM.
Taken in the same sequence, the figures for `Cc1oc(C[C@H]2CCCCN2C(=O)c2ncccc2-c2ccccc2)nc1C(C)(C)O` [Example 25, (R)-(2-((4-(2-hydroxypropan-2-yl)-5-methyloxazol-2-yl)methyl)piperidin-1-yl)(3-phenylpyridin-2-yl)methanone] were 240 nM and 127 nM.
